Data: patent publication US20250281457A1, “TREATMENT OR PREVENTION OF DENGUE VIRAL INFECTION” (Janssen Pharmaceuticals, Inc., priority 2022, published 2025)
Like-named read-outs stand apart in the source and are kept apart here.

Assay: Effect of food on plasma pharmacokinetics after single oral dose of SF2a/b (Example 2)
Type: in vivo, human
Settings: for AUC(0-t) / AUC(0-inf) / Cmax / half-life / Tmax: both sexes, human, plasma, oral; for Tmax: read-out: tmax, Median
Experimental: The effect of food on the pharmacokinetics (PK) of Compound (a) was assessed in healthy participants after a single oral dose of SF2a/b, described in Example 1, administered at different dose levels in a randomized single dose, 2-period crossover study. The effect of food on the PK of Compound (a) was determined at 3 different dose levels (50 mg, 200 mg, and 800 mg) for a standardized breakfast; at one dose level (800 mg) for a high-fat, high-calorie breakfast; at two dose levels (200 mg and 800 mg) for a low-fat, low-calorie breakfast, as well as for a low-fat, high-calorie breakfast. 124 healthy adult participants (male and female, 18 to 55 years of age) were enrolled in this study. The volunteers were divided in six panels, which were organized as follows: • Panel […]: • Treatment D: A single 800-mg dose (4×200-mg tablets) of Compound (a) SF2b in fasted conditions. • Treatment E: A single 800-mg dose (4×200-mg tablets) of Compound (a) SF2b in fed conditions (standardized breakfast). • Treatments D and E (treatment sequence group 1 [n=8]: DE; treatment sequence group 2 [n=8]: ED). Panel 4, n=14: • Treatment F: A single 200-mg dose (1×200-mg tablet) of Compound (a) SF2b in fasted conditions. • Treatment G: A single 200-mg dose (1×200-mg tablet) of Compound (a) SF2b, in fed conditions (standardized breakfast). • Treatments F and G (treatment sequence group 1 [n=7]: FG; treatment sequence group 2 [n=7]: GF). Panel […]: • Treatment H: A single 50-mg dose (1×50-mg tablet) of Compound (a) SF2a in fasted conditions. • Treatment I: A single 50-mg dose (1×50-mg tablet) of Compound (a) SF2a in fed conditions (standardized breakfast). • Treatments H and I (treatment sequence group 1 [n=7]: HI; treatment sequence group 2 [n=7]: IH). Panel 6 (n=16): • Treatment J: single 800-mg dose (4×200-mg tablets) of Compound (a) administered as SF2b in fasted conditions. • Treatment K: single 800-mg dose (4×200-mg tablets) of Compound (a) administered as SF2b in fed conditions (high-fat, high-calorie breakfast). • Treatments J and K (treatment sequence group 1 [n=8]: JK; treatment sequence group 2 [n=8]: KJ). Panel 7 (n=32): • Treatment L: single 800-mg dose (4×200-mg tablets) of Compound (a) administered as SF2b in fed conditions (low-fat, low-calorie breakfast). • Treatment M: single 800-mg dose (4×200-mg tablets) of Compound (a) administered as SF2b in fed conditions (low-fat, high-calorie breakfast). • Treatment L (n=16) or Treatment M (n=16). Panel 8 (n=32): • Treatment N: single 200-mg dose (1×200-mg tablet) of Compound (a) administered as SF2b in fed conditions (low-fat, low-calorie breakfast). • Treatment O: single 200-mg dose (1×200-mg tablet) of Compound (a) administered as SF2b in fed conditions (low-fat, high-calorie breakfast). • Treatment N (n=16) or Treatment O (n=16). Tablets were administered orally, together with approximately 240 mL of non-carbonated water, in fasted or fed conditions. […] On day 1 of all treatments in each panel, the participants had fasted overnight for at least 10 hours before study drug intake. Intake of water was not allowed from 2 hours before and until 2 hours after study drug intake, except for the water used for study drug intake and breakfast. In case of intake in fed conditions, study drug was administered within 10 minutes after completing a standardized breakfast (Treatments E, G, and I), or a high-fat, high-calorie breakfast (Treatment K), a low-fat, low-calorie breakfast (Treatments L and N), or a low-fat, high-calorie breakfast (Treatments M and O). For treatments E, G, and I a standardized breakfast was served, consisting of (or its equivalent) 4 slices of bread, 2 slices of ham or cheese, butter, jelly, and 1 or 2 cups (up to 355 mL) of decaffeinated coffee or tea with milk and/or sugar, if desired (containing approximately: fat: 21 g, carbohydrates: 67 g, proteins: 19 g; total calories: 533 kcal). For treatment K in a high-fat, high-calorie breakfast was served. […]

[1] = 50 mg SF2a, standardized breakfast vs fasted
[2] = 200 mg SF2b, low-fat, high-calorie vs standardized breakfast
[3] = 200 mg SF2b, low-fat, low-calorie vs standardized breakfast
[4] = 200 mg SF2b, standardized breakfast vs fasted
[5] = 800 mg SF2b, high-fat, high-calorie breakfast vs fasted
[6] = 800 mg SF2b, low-fat, high-calorie vs standardized breakfast
[7] = 800 mg SF2b, low-fat, low-calorie vs standardized breakfast
[8] = 800 mg SF2b, standardized breakfast vs fasted

COc1cc(NC(C(=O)c2c[nH]c3ccc(OC(F)(F)F)cc23)c2ccc(Cl)cc2OC)cc(S(C)(=O)=O)c1 (centres unmarked) [Compound (a)]
AUClast, Geometric Mean Ratio Treatment I vs Treatment H [1]: 120.38% | AUC∞, Geometric Mean Ratio Treatment I vs Treatment H [1]: 121.24% | Cmax, Geometric Mean Ratio Treatment I vs Treatment H [1]: 132.83% | AUClast, Geometric Mean Ratio Treatment O vs Treatment G [2]: 66.47% | AUC∞, Geometric Mean Ratio Treatment O vs Treatment G [2]: 67.23% | Cmax, Geometric Mean Ratio Treatment O vs Treatment G [2]: 72.81% | AUClast, Geometric Mean Ratio Treatment N vs Treatment G [3]: 73.28% | AUC∞, Geometric Mean Ratio Treatment N vs Treatment G [3]: 73.61% | Cmax, Geometric Mean Ratio Treatment N vs Treatment G [3]: 72.54% | AUClast, Geometric Mean Ratio Treatment G vs Treatment F [4]: 168.45% | AUC∞, Geometric Mean Ratio Treatment G vs Treatment F [4]: 172.00% | Cmax, Geometric Mean Ratio Treatment G vs Treatment F [4]: 176.07% | AUClast, Geometric Mean Ratio Treatment K vs Treatment J [5]: 391.52% | AUC∞, Geometric Mean Ratio Treatment K vs Treatment J [5]: 384.08% | Cmax, Geometric Mean Ratio Treatment K vs Treatment J [5]: 409.01% | AUClast, Geometric Mean Ratio Treatment M vs Treatment E [6]: 65.27% | AUC∞, Geometric Mean Ratio Treatment M vs Treatment E [6]: 69.35% | Cmax, Geometric Mean Ratio Treatment M vs Treatment E [6]: 60.73% | AUClast, Geometric Mean Ratio Treatment L vs Treatment E [7]: 60.37% | AUC∞, Geometric Mean Ratio Treatment L vs Treatment E [7]: 64.71% | Cmax, Geometric Mean Ratio Treatment L vs Treatment E [7]: 60.56% | AUClast, Geometric Mean Ratio Treatment E vs Treatment D [8]: 241.23% | AUC∞, Geometric Mean Ratio Treatment E vs Treatment D [8]: 238.11% | Cmax, Geometric Mean Ratio Treatment E vs Treatment D [8]: 277.77% | relative bioavailability for AUClast, standardized breakfast compared to fasted (SF2a/b, 50 mg dose): 124% | relative bioavailability for Cmax, standardized breakfast compared to fasted (SF2a/b, 50 mg dose): 133% | relative bioavailability for AUClast, standardized breakfast compared to fasted (SF2a/b, 800 mg dose): 243% | relative bioavailability for Cmax, standardized breakfast compared to fasted (SF2a/b, 800 mg dose): 278% | exposure, high-fat, high-calorie breakfast compared to fasted conditions (SF2a/b, single dose 800 mg): approximately 4 times higher | tlast, Median (Treatment D: single 800 mg (SF2b), fasted): 840.00 h | tlast, Median (Treatment E: single 800 mg (SF2b), fed, standardized breakfast): 840.00 h | tlast, Median (Treatment F: single 200 mg (SF2b), fasted): 840.00 h | tlast, Median (Treatment G: single 200 mg (SF2b), fed, standardized breakfast): 840.00 h | tlast, Median (Treatment H: single 50 mg (SF2a), fasted): 840.00 h | tlast, Median (Treatment I: single 50 mg (SF2a), fed, standardized breakfast): 840.00 h | AUC(0-t) (50 mg, 50 mg SF2a, fasted, linear mixed effects model (Table 5C), read-out: AUClast, Geometric Mean Treatment H): 17900 ng·h/mL | AUC(0-inf) (50 mg, 50 mg SF2a, fasted, linear mixed effects model (Table 5C), read-out: AUC∞, Geometric Mean Treatment H): 18700 ng·h/mL | Cmax (50 mg, 50 mg SF2a, fasted, linear mixed effects model (Table 5C), read-out: Cmax, Geometric Mean Treatment H): 193 ng/mL | AUC(0-t) (50 mg, 50 mg SF2a, standardized breakfast, linear mixed effects model (Table 5C), read-out: AUClast, Geometric Mean Treatment I): 21600 ng·h/mL | AUC(0-inf) (50 mg, 50 mg SF2a, standardized breakfast, linear mixed effects model (Table 5C), read-out: AUC∞, Geometric Mean Treatment I): 22700 ng·h/mL | Cmax (50 mg, 50 mg SF2a, standardized breakfast, linear mixed effects model (Table 5C), read-out: Cmax, Geometric Mean Treatment I): 257 ng/mL | AUC(0-t) (50 mg, Treatment H: single 50 mg (SF2a), fasted, read-out: AUClast, Geo. Mean): 18000 ng·h/mL | AUC(0-t) (50 mg, Treatment H: single 50 mg (SF2a), fasted, read-out: AUClast, Mean): 19900 ng·h/mL | AUC(0-t) (50 mg, Treatment H: single 50 mg (SF2a), fasted, read-out: AUClast, Median): 18500 ng·h/mL | AUC(0-inf) (50 mg, Treatment H: single 50 mg (SF2a), fasted, read-out: AUC∞, Geo. Mean): 18800 ng·h/mL | AUC(0-inf) (50 mg, Treatment H: single 50 mg (SF2a), fasted, read-out: AUC∞, Mean): 21000 ng·h/mL | AUC(0-inf) (50 mg, Treatment H: single 50 mg (SF2a), fasted, read-out: AUC∞, Median): 18800 ng·h/mL | Cmax (50 mg, Treatment H: single 50 mg (SF2a), fasted, read-out: Cmax, Geo. Mean): 195 ng/mL | Cmax (50 mg, Treatment H: single 50 mg (SF2a), fasted, read-out: Cmax, Mean): 214 ng/mL | Cmax (50 mg, Treatment H: single 50 mg (SF2a), fasted, read-out: Cmax, Median): 208 ng/mL | half-life (50 mg, Treatment H: single 50 mg (SF2a), fasted, read-out: t1/2, term, Geo. Mean (converted)): 167 h | half-life (50 mg, Treatment H: single 50 mg (SF2a), fasted, read-out: t1/2, term, Mean (converted)): 176 h | half-life (50 mg, Treatment H: single 50 mg (SF2a), fasted, read-out: t1/2, term, Median (converted)): 162 h | Tmax (50 mg, Treatment H: single 50 mg (SF2a), fasted): 7 h | AUC(0-t) (50 mg, Treatment I: single 50 mg (SF2a), fed, standardized breakfast, read-out: AUClast, Geo. Mean): 21100 ng·h/mL | AUC(0-t) (50 mg, Treatment I: single 50 mg (SF2a), fed, standardized breakfast, read-out: AUClast, Mean): 22900 ng·h/mL | AUC(0-t) (50 mg, Treatment I: single 50 mg (SF2a), fed, standardized breakfast, read-out: AUClast, Median): 20400 ng·h/mL | AUC(0-inf) (50 mg, Treatment I: single 50 mg (SF2a), fed, standardized breakfast, read-out: AUC∞, Geo. Mean): 22100 ng·h/mL | AUC(0-inf) (50 mg, Treatment I: single 50 mg (SF2a), fed, standardized breakfast, read-out: AUC∞, Mean): 24600 ng·h/mL | AUC(0-inf) (50 mg, Treatment I: single 50 mg (SF2a), fed, standardized breakfast, read-out: AUC∞, Median): 20800 ng·h/mL | Cmax (50 mg, Treatment I: single 50 mg (SF2a), fed, standardized breakfast, read-out: Cmax, Geo. Mean): 257 ng/mL | Cmax (50 mg, Treatment I: single 50 mg (SF2a), fed, standardized breakfast, read-out: Cmax, Mean): 288 ng/mL | Cmax (50 mg, Treatment I: single 50 mg (SF2a), fed, standardized breakfast, read-out: Cmax, Median): 267 ng/mL | half-life (50 mg, Treatment I: single 50 mg (SF2a), fed, standardized breakfast, read-out: t1/2, term, Geo. Mean (converted)): 174 h | half-life (50 mg, Treatment I: single 50 mg (SF2a), fed, standardized breakfast, read-out: t1/2, term, Mean (converted)): 185 h | half-life (50 mg, Treatment I: single 50 mg (SF2a), fed, standardized breakfast, read-out: t1/2, term, Median (converted)): 159 h | Tmax (50 mg, Treatment I: single 50 mg (SF2a), fed, standardized breakfast): 6.5 h | AUC(0-t) (200 mg, 200 mg SF2b, fasted, linear mixed effects model (Table 5B), read-out: AUClast, Geometric Mean Treatment F): 60500 ng·h/mL | AUC(0-inf) (200 mg, 200 mg SF2b, fasted, linear mixed effects model (Table 5B), read-out: AUC∞, Geometric Mean Treatment F): 60500 ng·h/mL | Cmax (200 mg, 200 mg SF2b, fasted, linear mixed effects model (Table 5B), read-out: Cmax, Geometric Mean Treatment F): 559 ng/mL | AUC(0-t) (200 mg, 200 mg SF2b, fed, low-fat, high-calorie breakfast, read-out: AUClast, Geometric LS Means Treatment O): 65200 ng·h/mL | AUC(0-inf) (200 mg, 200 mg SF2b, fed, low-fat, high-calorie breakfast, read-out: AUC∞, Geometric LS Means Treatment O): 69300 ng·h/mL | Cmax (200 mg, 200 mg SF2b, fed, low-fat, high-calorie breakfast, read-out: Cmax, Geometric LS Means Treatment O): 700 ng/mL | AUC(0-t) (200 mg, 200 mg SF2b, fed, low-fat, low-calorie breakfast, read-out: AUClast, Geometric LS Means Treatment N): 71900 ng·h/mL | AUC(0-inf) (200 mg, 200 mg SF2b, fed, low-fat, low-calorie breakfast, read-out: AUC∞, Geometric LS Means Treatment N): 75800 ng·h/mL | Cmax (200 mg, 200 mg SF2b, fed, low-fat, low-calorie breakfast, read-out: Cmax, Geometric LS Means Treatment N): 697 ng/mL | AUC(0-t) (200 mg, 200 mg SF2b, fed, standardized breakfast (Tables 5E, 5G), read-out: AUClast, Geometric LS Means Treatment G): 98200 ng·h/mL
